# Data published in US20200017495A1, “NOVEL HETEROCYCLIC COMPOUNDS AND THEIR USE IN PREVENTING OR TREATING BACTERIAL INFECTIONS” (priority 2017, published 2020).
# Tests used:
# [1] = system: Enterobacter cloacae (ECL) isolates; experiment: MIC of compounds alone and combined with antibacterials, broth microdilution (CLSI); type: cell-based
# Summary of the method: (§1)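 Broth microdilution in cation-adjusted Mueller-Hinton broth, inoculum 5.10^5 CFU/mL, 16-20 h at 35° C in ambient air, on genotyped isolates. Compound MIC, alone or with an antibacterial, taken visually as lowest concentration preventing growth; antibacterial MIC determined at each compound concentration.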
# [2] = system: Escherichia coli (ECO) isolates; experiment: as above; type: cell-based
# Summary of the method: as §1
structure (smiles),measurement,setting,value
"C=CC1=C(C(=O)O)N2C(=O)[C@@H](NC(=O)/C(=N\OCC(=O)O)c3csc(N)n3)[C@H]2SC1 [FIX, Cefixime]",MIC,"[1]; strain ECL 260253, genotype TEM-1, KPC-3",>128 µg/mL
same,MIC,"[1]; strain ECL 260323, genotype AmpC",>128 µg/mL
same,MIC,"[1]; strain ECL 260508, genotype TEM-1, CTX-M-15",>128 µg/mL
same,MIC,"[1]; strain ECL HAN, genotype OXA-35",>128 µg/mL
same,MIC,"[1]; strain ECL NEM146383, genotype AmpC",>128 µg/mL
same,MIC,"[1]; strain ECL P99, genotype AmpC",>128 µg/mL
same,MIC,"[1]; strain ECL UFR12, genotype CTX-M-9, OXA-48",16 µg/mL
same,MIC,"[1]; strain ECL UFR13, genotype TEM-1, SHV-12, CTX-M-9, OXA-48",>128 µg/mL
same,MIC,"[1]; strain ECL UFR14, genotype TEM-1, SHV-12, CTX-M-15, DHA-1, OXA-1, OXA-48",>128 µg/mL
same,MIC,"[1]; strain ECL UFR38, genotype CTX-M-15, NDM-1",>128 µg/mL
same,MIC,"[1]; strain ECL UFR51, genotype SHV-12, IMP-8",>128 µg/mL
same,MIC,"[1]; strain ECL UFR60, genotype TEM-1, CTX-M-15, KPC-2",>128 µg/mL
same,MIC,"[1]; strain ECL UFR70, genotype TEM-1, CTX-M-15, CMY-2, OXA-1, Porin loss",>128 µg/mL
same,MIC,"[1]; strain ECL UFR84, genotype TEM-1, AmpC, OXA-1",>128 µg/mL
same,MIC,"[1]; strain ECL UFR85, genotype TEM-1, CTX-M-15, AmpC",>128 µg/mL
same,MIC,"[1]; strain ECL UFR192, genotype TEM-1, NDM-1, antibiotic alone",>128 µg/mL
same,MIC ATB in combination,"[1]; strain ECL UFR192, with AF2 @ 8 μg/mL",>128 µg/mL
same,MIC ATB in combination,"[1]; strain ECL UFR192, with AF3 @ 8 μg/mL",>128 µg/mL
same,MIC ATB in combination,"[1]; strain ECL UFR192, with CLA @ 4 μg/mL",>128 µg/mL
same,MIC,"[1]; strain ECL UFR193, genotype TEM-1, CTX-M-15, OXA-1, NDM-1, RmtC, antibiotic alone",>128 µg/mL
same,MIC ATB in combination,"[1]; strain ECL UFR193, with AF2 @ 8 μg/mL",>128 µg/mL
same,MIC ATB in combination,"[1]; strain ECL UFR193, with AF3 @ 8 μg/mL",<=0.25 μg/mL
same,MIC ATB in combination,"[1]; strain ECL UFR193, with CLA @ 4 μg/mL",>128 µg/mL
same,MIC,"[1]; strain ECL UFR194, genotype OXA-48",4 µg/mL
same,MIC ATB in combination,"[1]; strain ECL UFR194, with AF2 @ 8 μg/mL",<=0.25 μg/mL
same,MIC ATB in combination,"[1]; strain ECL UFR194, with AF3 @ 8 μg/mL",<=0.25 μg/mL
same,MIC ATB in combination,"[1]; strain ECL UFR194, with CLA @ 4 μg/mL",8 µg/mL
same,MIC,"[1]; strain ECL UFR195, genotype TEM-1, CTX-M-15, OXA-1, OXA-48",>128 µg/mL
same,MIC ATB in combination,"[1]; strain ECL UFR195, with AF2 @ 8 μg/mL",8 µg/mL
same,MIC ATB in combination,"[1]; strain ECL UFR195, with AF3 @ 8 μg/mL",0.5 µg/mL
same,MIC ATB in combination,"[1]; strain ECL UFR195, with CLA @ 4 μg/mL",>128 µg/mL
same,MIC,"[1]; strain ECL UFR196, genotype TEM-1, CTX-M-15, OXA-1, OXA-48",>128 µg/mL
same,MIC ATB in combination,"[1]; strain ECL UFR196, with AF2 @ 8 μg/mL",8 µg/mL
same,MIC ATB in combination,"[1]; strain ECL UFR196, with AF3 @ 8 μg/mL",2 µg/mL
same,MIC ATB in combination,"[1]; strain ECL UFR196, with CLA @ 4 μg/mL",>128 µg/mL
same,MIC,"[1]; strain ECL UFR197, genotype TEM-1, CTX-M-15, OXA-1, OXA-48",>128 µg/mL
same,MIC ATB in combination,"[1]; strain ECL UFR197, with AF2 @ 8 μg/mL",32 µg/mL
same,MIC ATB in combination,"[1]; strain ECL UFR197, with AF3 @ 8 μg/mL",4 µg/mL
same,MIC ATB in combination,"[1]; strain ECL UFR197, with CLA @ 4 μg/mL",128 µg/mL
same,MIC,"[1]; strain ECL UFR198, genotype TEM-1, SHV-12, CTX-M-15, DHA-1, OXA-1, OXA-48",>128 µg/mL
same,MIC ATB in combination,"[1]; strain ECL UFR198, with AF2 @ 8 μg/mL",128 µg/mL
same,MIC ATB in combination,"[1]; strain ECL UFR198, with AF3 @ 8 μg/mL",32 µg/mL
same,MIC ATB in combination,"[1]; strain ECL UFR198, with CLA @ 4 μg/mL",>128 µg/mL
same,MIC,"[1]; strain ECL UFR200, genotype TEM-1, SHV-12, KPC-2",>128 µg/mL
same,MIC,"[1]; strain ECL UFR203, genotype TEM-1, SHV-12, VIM-1, antibiotic alone",>128 µg/mL
same,MIC ATB in combination,"[1]; strain ECL UFR203, with AF2 @ 8 μg/mL",>128 µg/mL
same,MIC ATB in combination,"[1]; strain ECL UFR203, with AF3 @ 8 μg/mL",>128 µg/mL
same,MIC ATB in combination,"[1]; strain ECL UFR203, with CLA @ 4 μg/mL",>128 µg/mL
same,MIC,"[1]; strain ECL UFR214, genotype TEM-1, SHV-31, CTX-M-15, VIM-4, antibiotic alone",>128 µg/mL
same,MIC ATB in combination,"[1]; strain ECL UFR214, with AF2 @ 8 μg/mL",>128 µg/mL
same,MIC ATB in combination,"[1]; strain ECL UFR214, with AF3 @ 8 μg/mL",>128 µg/mL
same,MIC ATB in combination,"[1]; strain ECL UFR214, with CLA @ 4 μg/mL",>128 µg/mL
same,MIC,"[1]; strain ECL UFR252PT, genotype VIM-2, antibiotic alone",>128 µg/mL
same,MIC ATB in combination,"[1]; strain ECL UFR252PT, with AF2 @ 8 μg/mL",>128 µg/mL
same,MIC ATB in combination,"[1]; strain ECL UFR252PT, with AF3 @ 8 μg/mL",>128 µg/mL
same,MIC ATB in combination,"[1]; strain ECL UFR252PT, with CLA @ 4 μg/mL",>128 µg/mL
same,MIC ATB in combination,"[2]; ECO 4133, AF2 @ 8 μg/mL",<0.25 µg/mL
same,MIC ATB in combination,"[2]; ECO 4133, AF3 @ 8 μg/mL",<0.25 µg/mL
same,MIC ATB in combination,"[2]; ECO 4133, CLA @ 4 μg/mL",0.5 µg/mL
same,MIC ATB in combination,"[2]; ECO 5302, AF2 @ 8 μg/mL",<0.25 µg/mL
same,MIC ATB in combination,"[2]; ECO 5302, AF3 @ 8 μg/mL",<0.25 µg/mL
same,MIC ATB in combination,"[2]; ECO 5302, CLA @ 4 μg/mL",0.5 µg/mL
same,MIC ATB in combination,"[2]; ECO 131119, AF2 @ 8 μg/mL",<0.25 µg/mL
same,MIC ATB in combination,"[2]; ECO 131119, AF3 @ 8 μg/mL",<0.25 µg/mL
same,MIC ATB in combination,"[2]; ECO 131119, CLA @ 4 μg/mL",<=0.25 μg/mL
same,MIC ATB in combination,"[2]; ECO 180070, AF2 @ 8 μg/mL",<0.25 µg/mL
same,MIC ATB in combination,"[2]; ECO 180070, AF3 @ 8 μg/mL",<0.25 µg/mL
same,MIC ATB in combination,"[2]; ECO 180070, CLA @ 4 μg/mL",2 µg/mL
same,MIC ATB in combination,"[2]; ECO 190314, AF2 @ 8 μg/mL",<0.25 µg/mL
same,MIC ATB in combination,"[2]; ECO 190314, AF3 @ 8 μg/mL",<0.25 µg/mL
same,MIC ATB in combination,"[2]; ECO 190314, CLA @ 4 μg/mL",2 µg/mL
same,MIC ATB in combination,"[2]; ECO 190317, AF2 @ 8 μg/mL",<0.25 µg/mL
same,MIC ATB in combination,"[2]; ECO 190317, AF3 @ 8 μg/mL",<0.25 µg/mL
same,MIC ATB in combination,"[2]; ECO 190317, CLA @ 4 μg/mL",0.5 µg/mL
same,MIC ATB in combination,"[2]; ECO 190457, AF2 @ 8 μg/mL",<0.25 µg/mL
same,MIC ATB in combination,"[2]; ECO 190457, AF3 @ 8 μg/mL",<0.25 µg/mL
same,MIC ATB in combination,"[2]; ECO 190457, CLA @ 4 μg/mL",0.5 µg/mL
same,MIC ATB in combination,"[2]; ECO 190549, AF2 @ 8 μg/mL",<0.25 µg/mL
same,MIC ATB in combination,"[2]; ECO 190549, AF3 @ 8 μg/mL",<0.25 µg/mL
same,MIC ATB in combination,"[2]; ECO 190549, CLA @ 4 μg/mL",0.5 µg/mL
same,MIC ATB in combination,"[2]; ECO 200159, AF2 @ 8 μg/mL",<0.25 µg/mL
same,MIC ATB in combination,"[2]; ECO 200159, AF3 @ 8 μg/mL",<0.25 µg/mL
same,MIC ATB in combination,"[2]; ECO 200159, CLA @ 4 μg/mL",<=0.25 μg/mL
same,MIC ATB in combination,"[2]; ECO 200259, AF2 @ 8 μg/mL",<0.25 µg/mL
same,MIC ATB in combination,"[2]; ECO 200259, AF3 @ 8 μg/mL",<0.25 µg/mL
same,MIC ATB in combination,"[2]; ECO 200259, CLA @ 4 μg/mL",<=0.25 μg/mL
same,MIC ATB in combination,"[2]; ECO 200344, AF2 @ 8 μg/mL",<0.25 µg/mL
same,MIC ATB in combination,"[2]; ECO 200344, AF3 @ 8 μg/mL",<=0.25 μg/mL
same,MIC ATB in combination,"[2]; ECO 200344, CLA @ 4 μg/mL",0.5 µg/mL
same,MIC ATB in combination,"[2]; ECO 260096, AF2 @ 8 μg/mL",<=0.25 μg/mL
same,MIC ATB in combination,"[2]; ECO 260096, AF3 @ 8 μg/mL",<=0.25 μg/mL
same,MIC ATB in combination,"[2]; ECO 260096, CLA @ 4 μg/mL",1 µg/mL
same,MIC ATB in combination,"[2]; ECO 260304, AF2 @ 8 μg/mL",<0.25 µg/mL
same,MIC ATB in combination,"[2]; ECO 260304, AF3 @ 8 μg/mL",<0.25 µg/mL
same,MIC ATB in combination,"[2]; ECO 260304, CLA @ 4 μg/mL",0.5 µg/mL
same,MIC ATB in combination,"[2]; ECO 260508, AF2 @ 8 μg/mL",<0.25 µg/mL
same,MIC ATB in combination,"[2]; ECO 260508, AF3 @ 8 μg/mL",<0.25 µg/mL
same,MIC ATB in combination,"[2]; ECO 260508, CLA @ 4 μg/mL",0.5 µg/mL
same,MIC ATB in combination,"[2]; ECO RGN238, AF2 @ 8 μg/mL",<0.25 µg/mL
same,MIC ATB in combination,"[2]; ECO RGN238, AF3 @ 8 μg/mL",<0.25 µg/mL
same,MIC ATB in combination,"[2]; ECO RGN238, CLA @ 4 μg/mL",<=0.25 μg/mL
same,MIC ATB in combination,"[2]; ECO UFR15, AF2 @ 8 μg/mL",<0.25 µg/mL
same,MIC ATB in combination,"[2]; ECO UFR15, AF3 @ 8 μg/mL",<0.25 µg/mL
same,MIC ATB in combination,"[2]; ECO UFR15, CLA @ 4 μg/mL",1 µg/mL
same,MIC ATB in combination,"[2]; ECO UFR16, AF2 @ 8 μg/mL",<0.25 µg/mL
same,MIC ATB in combination,"[2]; ECO UFR16, AF3 @ 8 μg/mL",<0.25 µg/mL
same,MIC ATB in combination,"[2]; ECO UFR16, CLA @ 4 μg/mL",4 µg/mL
same,MIC ATB in combination,"[2]; ECO UFR17, AF2 @ 8 μg/mL",>128 µg/mL
same,MIC ATB in combination,"[2]; ECO UFR17, AF3 @ 8 μg/mL",>128 µg/mL
same,MIC ATB in combination,"[2]; ECO UFR17, CLA @ 4 μg/mL",>128 µg/mL
same,MIC ATB in combination,"[2]; ECO UFR18, AF2 @ 8 μg/mL",<0.25 µg/mL
